Measured values taken from US20240238424A1, “HETEROBIFUNCTIONAL COMPOUNDS AND METHODS OF TREATING DISEASE” (Halda Therapeutics OpCo, Inc., priority 2021, published 2024).

Key:
Type in all cases: cell-based
GSPT1 = molecular target: T1, GSPT1 (Homo sapiens, UniProt P15170+Q96SW2); assay: GSPT1 HiBit degradation assay; conditions: HEK293 LgBiT cells expressing GSPT1_HiBiT, luminescence after 6 hours
T1 construct: host or cells: HEK293 LgBiT cell line
Summary of the method: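 Degradation readout is luminescence at 6 h, with DC50 taken as the concentration giving 50% GSPT1 loss. Compound titrations were added together with endurazine (0.5× final) to HEK293 LgBiT/GSPT1-HiBiT cells seeded the day before and kept at 37 °C.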

22RV1 cells = assay: Cellular growth inhibition assay (CTG), 22RV1 cells; conditions: Homo sapiens, CellTiter-Glo 2.0, day-5
Method: (§1) Cells were seeded in Poly-D-lysine-treated 384-well white plates, with 25 μL cell suspension at 250 cells/well for continuous treatments, and 1000 cells/well for washout treatments. Plates were spun at 300×g for 3 minutes, and cells were cultured at 37° C. with 5% CO2 in a humidified tissue culture incubator.
(§2) After 24 hours, the test compounds were diluted with cell culture medium in 96 deep well plates. DMSO was used as a negative control. A 25 μL aliquot of compound-containing medium was added in each well, at a final top concentration of 10 μM or 30 μM test compound, with 3-fold dilutions. For washout assays, after 4 hours, cell medium with compound was removed, and the cells were washed with 75p L fresh medium. Plates were then spun at 300×g for 3 minutes and replaced with 50 μL fresh medium in each well. Plates were then spun at 300×g for 3 minutes again and cultured at 37° C. with 5% CO2.
(§3) At day-0 and day-5 of compound treatments, cell viability was quantified with CellTiter-Glo 2.0 (Promega). After equilibrating cell plates at room temperature for 30 minutes, 25 μL CellTiter-Glo 2.0 reagent was dispensed into each well (on top of 50 μL of cell culture). Plates were mixed on a shaker for 2 minutes at 500 rpm, followed by a 10-minute incubation at room temperature. Luminescence readings were measured with an EnVision Plate Reader. Data was normalized to DMSO treated day-0 cell wells. A four-parameter non-linear regression curve fit was applied to dose-response data in Prism to determine the half maximal growth inhibitory concentration (GI50) of each compound.

U937 cells = assay: Cellular growth inhibition assay (CTG), U937 cells; conditions: Homo sapiens, U-937, CellTiter-Glo 2.0, day-5
Method: as §1, §2, §3

[1] = test system: 293 mutant EGFR_T790M L858R Cells; assay: Cellular growth inhibition assay (CTG), 293 mutant EGFR_T790M L858R cells; conditions: 293 mutant EGFR T790M L858R cells, CellTiter-Glo 2.0, day-5
Method: as §1, §2, §3

T1 sequence (P15170 whole entry): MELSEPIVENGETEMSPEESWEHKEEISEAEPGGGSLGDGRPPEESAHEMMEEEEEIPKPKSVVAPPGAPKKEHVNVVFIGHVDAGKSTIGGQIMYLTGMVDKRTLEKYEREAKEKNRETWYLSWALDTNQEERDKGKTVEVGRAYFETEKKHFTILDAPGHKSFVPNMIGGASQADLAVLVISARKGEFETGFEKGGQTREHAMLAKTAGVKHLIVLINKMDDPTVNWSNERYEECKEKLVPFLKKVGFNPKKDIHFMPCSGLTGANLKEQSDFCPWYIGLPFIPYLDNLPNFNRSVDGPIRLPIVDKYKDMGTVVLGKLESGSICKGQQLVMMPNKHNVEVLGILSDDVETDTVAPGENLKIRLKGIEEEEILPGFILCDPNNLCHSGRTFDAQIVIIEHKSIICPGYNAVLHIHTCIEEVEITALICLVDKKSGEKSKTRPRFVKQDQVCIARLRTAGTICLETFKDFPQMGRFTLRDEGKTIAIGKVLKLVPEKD
T1 sequence (Q96SW2 whole entry): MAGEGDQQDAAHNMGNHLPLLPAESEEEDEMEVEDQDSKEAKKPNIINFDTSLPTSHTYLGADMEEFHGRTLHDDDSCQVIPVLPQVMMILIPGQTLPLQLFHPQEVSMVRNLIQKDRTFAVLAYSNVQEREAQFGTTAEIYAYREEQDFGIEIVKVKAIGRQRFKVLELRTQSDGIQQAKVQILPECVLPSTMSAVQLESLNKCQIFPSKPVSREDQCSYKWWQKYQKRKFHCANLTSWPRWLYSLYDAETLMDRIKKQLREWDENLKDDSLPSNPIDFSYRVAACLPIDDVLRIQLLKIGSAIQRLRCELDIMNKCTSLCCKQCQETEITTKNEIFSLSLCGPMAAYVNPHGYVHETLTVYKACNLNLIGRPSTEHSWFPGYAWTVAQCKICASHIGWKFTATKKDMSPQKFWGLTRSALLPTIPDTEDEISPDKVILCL
T1 sequence (Q16531 whole entry partner): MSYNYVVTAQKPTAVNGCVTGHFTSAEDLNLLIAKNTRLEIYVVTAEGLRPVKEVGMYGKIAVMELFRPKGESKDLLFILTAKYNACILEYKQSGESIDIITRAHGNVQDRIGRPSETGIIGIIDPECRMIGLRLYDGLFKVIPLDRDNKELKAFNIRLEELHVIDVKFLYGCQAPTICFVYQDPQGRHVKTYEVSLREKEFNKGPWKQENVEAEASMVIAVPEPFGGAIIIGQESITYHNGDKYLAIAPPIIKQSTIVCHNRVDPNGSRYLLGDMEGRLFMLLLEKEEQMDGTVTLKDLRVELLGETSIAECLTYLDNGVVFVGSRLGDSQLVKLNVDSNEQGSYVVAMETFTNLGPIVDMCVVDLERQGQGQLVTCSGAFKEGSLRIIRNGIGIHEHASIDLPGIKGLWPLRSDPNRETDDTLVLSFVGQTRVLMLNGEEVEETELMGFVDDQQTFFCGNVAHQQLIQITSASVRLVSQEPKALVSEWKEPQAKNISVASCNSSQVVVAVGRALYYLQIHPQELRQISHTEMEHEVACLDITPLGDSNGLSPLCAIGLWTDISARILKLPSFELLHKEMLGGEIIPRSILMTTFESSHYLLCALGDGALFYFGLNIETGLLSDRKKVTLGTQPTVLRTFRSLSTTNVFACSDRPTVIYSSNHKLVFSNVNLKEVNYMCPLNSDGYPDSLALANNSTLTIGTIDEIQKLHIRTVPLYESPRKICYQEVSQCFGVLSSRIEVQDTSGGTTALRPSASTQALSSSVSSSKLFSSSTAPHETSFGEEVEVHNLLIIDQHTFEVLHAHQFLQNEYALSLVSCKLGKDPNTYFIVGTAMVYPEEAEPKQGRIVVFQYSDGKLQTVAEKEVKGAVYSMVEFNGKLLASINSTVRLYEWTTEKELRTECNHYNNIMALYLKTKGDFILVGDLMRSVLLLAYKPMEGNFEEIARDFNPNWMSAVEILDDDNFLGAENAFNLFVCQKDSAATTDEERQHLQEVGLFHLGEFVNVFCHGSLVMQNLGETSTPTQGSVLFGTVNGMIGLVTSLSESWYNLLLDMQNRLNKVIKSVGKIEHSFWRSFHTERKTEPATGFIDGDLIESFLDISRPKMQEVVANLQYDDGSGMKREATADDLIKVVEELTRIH

SMILES | DC50 (GSPT1; Table 3) | GI50 (22RV1 cells) | GI50 (U937 cells) | DC50 (GSPT1; Table 3A) | GI50 [1]
CC1(C)[C@H](NC(=O)c2ccc(OCCOCCOCCOCCOCCOCCOCCOc3cc(Cl)cc(NC(=O)NCc4ccc5c(c4)CN(C4CCC(=O)NC4=O)C5=O)c3)cc2)C(C)(C)[C@H]1Oc1ccc(C#N)c(Cl)c1 (stereo partly shown) [Compound I-19, N-((1r,3r)-3-(3-chloro-4-cyanophenoxy)-2,2,4,4-tetramethylcyclobutyl)-4-((20-(3-chloro-5-(3-((2-(2,6-dioxopiperidin-3-yl)-1-oxoisoindolin-5-yl)methyl)ureido)phenoxy)-3,6,9,12,15,18-hexaoxaicosyl)oxy)benzamide] | 0.25 to 5 µM | < 0.1 µM | – | – | –
CC1(C)[C@H](NC(=O)c2ccc(OCCOCCOCCOCCOCCOCCOCCOCCOCCOCCOCCOc3cc(Cl)cc(NC(=O)NCc4ccc5c(c4)CN(C4CCC(=O)NC4=O)C5=O)c3)cc2)C(C)(C)[C@H]1Oc1ccc(C#N)c(Cl)c1 (stereo partly shown) [Compound I-21, N-[3-(3-chloro-4-cyano-phenoxy)-2,2,4,4-tetramethyl-cyclobutyl]-4-[2-[2-[2-[2-[2-[2-[2-[2-[2-[2-[2-[3-chloro-5-[[2-(2,6-dioxo-3-piperidyl)-1-oxo-isoindolin-5-yl]methylcarbamoylamino]phenoxy]ethoxy]ethoxy]ethoxy]ethoxy]ethoxy]ethoxy]ethoxy]ethoxy]ethoxy]ethoxy]ethoxy]benzamide] | 0.25 to 5 µM | 0.1 to 1 µM | – | – | –
Nc1ncnc2c1c(-c1ccc(Oc3ccccc3)cc1)nn2[C@@H]1CCCN(C(=O)/C=C/COCCOCCOCCOCCOCCOCCOCCOCCOCCOCCOCCOc2cc(Cl)cc(NC(=O)NCc3ccc4c(c3)CN(C3CCC(=O)NC3=O)C4=O)c2)C1 (stereo partly shown) [Compound I-32] | – | – | 1 to 5 µM | – | –
CN(C/C=C/C(=O)N1CCC[C@@H](n2nc(-c3ccc(Oc4ccccc4)cc3)c3c(N)ncnc32)C1)CCOCCOCCOCCOCCCCCCCCc1cc(Cl)cc(NC(=O)NCc2ccc3c(c2)CN(C2CCC(=O)NC2=O)C3=O)c1 (stereo partly shown) [Compound I-67] | < 0.25 µM | – | < 0.1 µM | – | –
CN(C/C=C/C(=O)N1CCC[C@@H](n2nc(-c3ccc(Oc4ccccc4)cc3)c3c(N)ncnc32)C1)CCOCCOCCOCCOCCOCCOCCCCCCCCc1cc(Cl)cc(NC(=O)NCc2ccc3c(c2)CN(C2CCC(=O)NC2=O)C3=O)c1 (stereo partly shown) [Compound I-72] | < 0.25 µM | – | < 0.1 µM | – | –
CN(C/C=C/C(=O)N1CCC[C@@H](n2nc(-c3ccc(Oc4ccccc4)cc3)c3c(N)ncnc32)C1)CCOCCOCCOCCOCCOCCOCCOCCOCCCCCCCCc1cc(Cl)cc(NC(=O)NCc2ccc3c(c2)CN(C2CCC(=O)NC2=O)C3=O)c1 (stereo partly shown) [Compound I-73] | < 0.25 µM | – | < 0.1 µM | – | –
CN(C/C=C/C(=O)N1CCC([C@@H]2CCNc3c(C(N)=O)c(-c4ccc(Oc5ccccc5)cc4)nn32)CC1)CCOCCOCCOCCOCCCCCCCCc1cc(Cl)cc(NC(=O)NCc2ccc3c(c2)CN(C2CCC(=O)NC2=O)C3=O)c1 (stereo partly shown) [Compound I-74] | < 0.25 µM | – | < 0.1 µM | – | –
CN(C/C=C/C(=O)N1CCC([C@@H]2CCNc3c(C(N)=O)c(-c4ccc(Oc5ccccc5)cc4)nn32)CC1)CCOCCOCCOCCOCCOCCOCCOCCOCCCCCCCCc1cc(Cl)cc(NC(=O)NCc2ccc3c(c2)CN(C2CCC(=O)NC2=O)C3=O)c1 (stereo partly shown) [Compound I-76] | < 0.25 µM | – | < 0.1 µM | – | –
COc1cc(N(C)CCN(C)C)c(NC(=O)/C=C/CN(C)CCOCCOCCOCCOCCOCCCCCc2cc(Cl)cc(NC(=O)NCc3ccc4c(c3)CN(C3CCC(=O)NC3=O)C4=O)c2)cc1Nc1nccc(-c2cn(C)c3ccccc23)n1 (stereo not shown) [Compound I-151] | – | – | – | 0.25 to 5 µM | 0.1 to 1 µM
C=CC(=O)NC1CN(c2nc(Nc3cn(CCOCCOCCOCCOCCOCCCCCc4cc(Cl)cc(NC(=O)NCc5ccc6c(c5)CN(C5CCC(=O)NC5=O)C6=O)c4)nc3OC)c3ncn(C)c3n2)C[C@H]1F (stereo partly shown) [Compound I-155] | – | – | – | < 0.25 µM | 0.1 to 1 µM
C=CC(=O)Nc1cc(Nc2nccc(-c3cn(C)c4ccccc34)n2)c(OC)cc1N(C)CCN(C)CCOCCOCCOCCOCCOCCOCCOCCOCCOCCOCCOCCCCCc1cc(Cl)cc(NC(=O)NCc2ccc3c(c2)CN(C2CCC(=O)NC2=O)C3=O)c1 (stereo not shown) [Compound I-161] | – | – | – | 0.25 to 5 µM | 1 to 5 µM

The next lines start with results.

DC50 (GSPT1; Table 3) | GI50 (22RV1 cells) | GI50 (U937 cells) | DC50 (GSPT1; Table 3A) | SMILES | GI50 [1]
0.25 to 5 µM | < 0.1 µM | – | – | CC1(C)[C@H](NC(=O)c2ccc(OCCOCCOCCOCCOCCOCCOCCOCCOCCOc3cc(Cl)cc(NC(=O)NCc4ccc5c(c4)CN(C4CCC(=O)NC4=O)C5=O)c3)cc2)C(C)(C)[C@H]1Oc1ccc(C#N)c(Cl)c1 (stereo partly shown) [Compound I-20, N-[3-(3-chloro-4-cyano-phenoxy)-2,2,4,4-tetramethyl-cyclobutyl]-4-[2-[2-[2-[2-[2-[2-[2-[2-[2-[3-chloro-5-[[2-(2,6-dioxo-3-piperidyl)-1-oxo-isoindolin-5-yl]methylcarbamoylamino]phenoxy]ethoxy]ethoxy]ethoxy]ethoxy]ethoxy]ethoxy]ethoxy]ethoxy]ethoxy]benzamide] | –
< 0.25 µM | < 0.1 µM | – | – | CC1(C)[C@H](NC(=O)c2ccc(OCCOCCOCCOCCOCCOCCOCCc3cc(Cl)cc(NC(=O)NCc4ccc5c(c4)CN(C4CCC(=O)NC4=O)C5=O)c3)cc2)C(C)(C)[C@H]1Oc1ccc(C#N)c(Cl)c1 (stereo partly shown) [Compound I-22, N-((1r,3r)-3-(3-chloro-4-cyanophenoxy)-2,2,4,4-tetramethylcyclobutyl)-4-((20-(3-chloro-5-(3-((2-(2,6-dioxopiperidin-3-yl)-1-oxoisoindolin-5-yl)methyl)ureido)phenyl)-3,6,9,12,15,18-hexaoxaicosyl)oxy)benzamide] | –
– | – | 0.1 to 1 µM | – | Nc1ncnc2c1c(-c1ccc(Oc3ccccc3)cc1)nn2[C@@H]1CCCN(C(=O)/C=C/COCCOCCOCCOCCOCCOCCOCCOc2cc(Cl)cc(NC(=O)NCc3ccc4c(c3)CN(C3CCC(=O)NC3=O)C4=O)c2)C1 (stereo partly shown) [Compound I-30] | –
0.25 to 5 µM | – | 1 to 5 µM | – | Nc1ncnc2c1c(-c1ccc(Oc3ccccc3)cc1)nn2[C@@H]1CCCN(C(=O)/C=C/COCCOCCOCCOCCOCCOCCOCCOCCOCCOc2cc(Cl)cc(NC(=O)NCc3ccc4c(c3)CN(C3CCC(=O)NC3=O)C4=O)c2)C1 (stereo partly shown) [Compound I-31] | –
< 0.25 µM | – | < 0.1 µM | – | CN(C/C=C/C(=O)N1CCC([C@@H]2CCNc3c(C(N)=O)c(-c4ccc(Oc5ccccc5)cc4)nn32)CC1)CCOCCOCCOCCOCCOCCOCCCCCCCCc1cc(Cl)cc(NC(=O)NCc2ccc3c(c2)CN(C2CCC(=O)NC2=O)C3=O)c1 (stereo partly shown) [Compound I-75] | –
– | – | – | 0.25 to 5 µM | COc1nn(C)cc1Nc1nc(N2CC(NC(=O)/C=C/CN(C)CCOCCOCCOCCOCCOCCCCCc3cc(Cl)cc(NC(=O)NCc4ccc5c(c4)CN(C4CCC(=O)NC4=O)C5=O)c3)[C@H](F)C2)nc2c1ncn2C (stereo partly shown) [Compound I-159] | 1 to 5 µM
– | – | – | 0.25 to 5 µM | C=CC(=O)Nc1cc(Nc2nccc(-c3cn(C)c4ccccc34)n2)c(OC)cc1N(C)CCN(C)CCOCCOCCOCCOCCOCCOCCOCCOCCOCCCCCc1cc(Cl)cc(NC(=O)NCc2ccc3c(c2)CN(C2CCC(=O)NC2=O)C3=O)c1 (stereo not shown) [Compound I-160] | 0.1 to 1 µM
